Assay results: PubChem BioAssay AID2060494 (Molecular Pharmacology Branch, DTP, NCI, 2025)

Test system: 435261-313-R-J1-PDC complex spheroid viability
Test: Anticancer human tumor 435261-313-R-J1-PDC patient-derived colon adenocarcinoma cell line growth inhibition [GQUAD]
Conditions: for IC50: curve of first compound; for viability, T/C: stronger effect = lower value
Summary of the method: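 Viability of tumor cells grown as complex spheroids with endothelial and stromal cells, exposed to drug combinations. Top concentration at or near clinical Cmax (else 10 microM), diluted in half-log increments.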

[1] = second compound 0.0316 µM, first compound 0.0316 µM
[2] = second compound 0.0316 µM, first compound 0.1 µM
[3] = second compound 0.0316 µM, first compound 0.316 µM
[4] = second compound 0.0316 µM, first compound 1 µM
[5] = second compound 0.0316 µM, first compound 3.16 µM
[6] = second compound 0.0316 µM, first compound 10 µM
[7] = second compound 0.1 µM, first compound 0.0316 µM
[8] = second compound 0.1 µM, first compound 0.1 µM
[9] = second compound 0.1 µM, first compound 0.316 µM
[10] = second compound 0.1 µM, first compound 1 µM
[11] = second compound 0.1 µM, first compound 3.16 µM
[12] = second compound 0.1 µM, first compound 10 µM
[13] = second compound 0.316 µM, first compound 0.0316 µM
[14] = second compound 0.316 µM, first compound 0.1 µM
[15] = second compound 0.316 µM, first compound 0.316 µM
[16] = second compound 0.316 µM, first compound 1 µM
[17] = second compound 0.316 µM, first compound 3.16 µM
[18] = second compound 0.316 µM, first compound 10 µM
[19] = second compound 1 µM, first compound 0.0316 µM
[20] = second compound 1 µM, first compound 0.1 µM
[21] = second compound 1 µM, first compound 0.316 µM
[22] = second compound 1 µM, first compound 1 µM
[23] = second compound 1 µM, first compound 3.16 µM
[24] = second compound 1 µM, first compound 10 µM
[25] = second compound 3.16 µM, first compound 0.0316 µM
[26] = second compound 3.16 µM, first compound 0.1 µM
[27] = second compound 3.16 µM, first compound 0.316 µM
[28] = second compound 3.16 µM, first compound 1 µM
[29] = second compound 3.16 µM, first compound 3.16 µM
[30] = second compound 3.16 µM, first compound 10 µM
[31] = second compound 10 µM, first compound 0.0316 µM
[32] = second compound 10 µM, first compound 0.1 µM
[33] = second compound 10 µM, first compound 0.316 µM
[34] = second compound 10 µM, first compound 1 µM
[35] = second compound 10 µM, first compound 3.16 µM
[36] = second compound 10 µM, first compound 10 µM
[37] = second compound 0.0316 µM, first compound 0.000999 µM
[38] = second compound 0.0316 µM, first compound 0.00316 µM
[39] = second compound 0.0316 µM, first compound 0.00999 µM
[40] = second compound 0.0316 µM, first compound 0.0999 µM
[41] = second compound 0.1 µM, first compound 0.000999 µM
[42] = second compound 0.1 µM, first compound 0.00316 µM
[43] = second compound 0.1 µM, first compound 0.00999 µM
[44] = second compound 0.1 µM, first compound 0.0999 µM
[45] = second compound 0.316 µM, first compound 0.000999 µM
[46] = second compound 0.316 µM, first compound 0.00316 µM
[47] = second compound 0.316 µM, first compound 0.00999 µM
[48] = second compound 0.316 µM, first compound 0.0999 µM
[49] = second compound 1 µM, first compound 0.000999 µM
[50] = second compound 1 µM, first compound 0.00316 µM
[51] = second compound 1 µM, first compound 0.00999 µM
[52] = second compound 1 µM, first compound 0.0999 µM
[53] = second compound 3.16 µM, first compound 0.000999 µM
[54] = second compound 3.16 µM, first compound 0.00316 µM
[55] = second compound 3.16 µM, first compound 0.00999 µM
[56] = second compound 3.16 µM, first compound 0.0999 µM
[57] = second compound 10 µM, first compound 0.000999 µM
[58] = second compound 10 µM, first compound 0.00316 µM
[59] = second compound 10 µM, first compound 0.00999 µM
[60] = second compound 10 µM, first compound 0.0999 µM
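Also: spheroids exposed to the agents for seven days before readout.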
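For viability, T/C in this document: percent of vehicle control viability with DMSO wells as 100%.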

Structure (SMILES): C=CC(=O)N1CCN(c2nc(=O)n(-c3c(C)ccnc3C(C)C)c3nc(-c4c(O)cccc4F)c(F)cc23)C(C)C1 (stereo not drawn) + CN(C)c1ccc(Nc2c3ccc(NC(=O)CCN4CCCC4)cc3nc3cc(NC(=O)CCN4CCCC4)ccc23)cc1
- IC50 (second compound 0.0316 µM): > 10000 nM
- IC50 (second compound 0.1 µM): > 10000 nM
- IC50 (second compound 0.316 µM): > 10000 nM
- IC50 (second compound 1 µM): > 10000 nM
- IC50 (second compound 3.16 µM): > 10000 nM
- IC50 (second compound 10 µM): < 31.6 nM
- viability, T/C [1]: 98.5%
- viability, T/C [2]: 146%
- viability, T/C [3]: 119%
- viability, T/C [4]: 97.6%
- viability, T/C [5]: 100%
- viability, T/C [6]: 105%
- viability, T/C [7]: 111%
- viability, T/C [8]: 109%
- viability, T/C [9]: 111%
- viability, T/C [10]: 138%
- viability, T/C [11]: 115%
- viability, T/C [12]: 173%
- viability, T/C [13]: 159%
- viability, T/C [14]: 106%
- viability, T/C [15]: 123%
- viability, T/C [16]: 120%
- viability, T/C [17]: 111%
- viability, T/C [18]: 103%
- viability, T/C [19]: 122%
- viability, T/C [20]: 101%
- viability, T/C [21]: 149%
- viability, T/C [22]: 99.8%
- viability, T/C [23]: 145%
- viability, T/C [24]: 109%
- viability, T/C [25]: 69.4%
- viability, T/C [26]: 98.3%
- viability, T/C [27]: 114%
- viability, T/C [28]: 113%
- viability, T/C [29]: 102%
- viability, T/C [30]: 87.1%
- viability, T/C [31]: 30.8%
- viability, T/C [32]: 45.6%
- viability, T/C [33]: 54%
- viability, T/C [34]: 71.5%
- viability, T/C [35]: 70.9%
- viability, T/C [36]: 30.2%

Structure (SMILES): CC[C@@]1(O)C(=O)OCc2c1cc1n(c2=O)Cc2cc3c(CN(C)C)c(O)ccc3nc2-1 + CN(C)c1ccc(Nc2c3ccc(NC(=O)CCN4CCCC4)cc3nc3cc(NC(=O)CCN4CCCC4)ccc23)cc1
- IC50 (second compound 0.0316 µM): > 316 nM
- IC50 (second compound 0.1 µM): > 316 nM
- IC50 (second compound 0.316 µM): > 316 nM
- IC50 (second compound 1 µM): > 316 nM
- IC50 (second compound 3.16 µM): 72.5 nM
- IC50 (second compound 10 µM): < 0.999 nM
- viability, T/C [37]: 110%
- viability, T/C [38]: 96.6%
- viability, T/C [39]: 116%
- viability, T/C [1]: 87.2%
- viability, T/C [40]: 67.5%
- viability, T/C [3]: 88.7%
- viability, T/C [41]: 119%
- viability, T/C [42]: 111%
- viability, T/C [43]: 101%
- viability, T/C [7]: 84.6%
- viability, T/C [44]: 76.1%
- viability, T/C [9]: 77.2%
- viability, T/C [45]: 108%
- viability, T/C [46]: 99.6%
- viability, T/C [47]: 87.5%
- viability, T/C [13]: 64.2%
- viability, T/C [48]: 73.7%
- viability, T/C [15]: 74.2%
- viability, T/C [49]: 88.4%
- viability, T/C [50]: 99.3%
- viability, T/C [51]: 87.8%
- viability, T/C [19]: 81.5%
- viability, T/C [52]: 82.3%
- viability, T/C [21]: 84.1%
- viability, T/C [53]: 75.2%
- viability, T/C [54]: 62.8%
- viability, T/C [55]: 78.6%
- viability, T/C [25]: 63.4%
- viability, T/C [56]: 45.3%
- viability, T/C [27]: 44.3%
- viability, T/C [57]: 39.9%
- viability, T/C [58]: 40.5%
- viability, T/C [59]: 33.6%
- viability, T/C [31]: 36.5%
- viability, T/C [60]: 29.8%
- viability, T/C [33]: 22%

Structure (SMILES): CCc1c2c(nc3ccc(O)cc13)-c1cc3c(c(=O)n1C2)COC(=O)[C@]3(O)CC + CN(C)c1ccc(Nc2c3ccc(NC(=O)CCN4CCCC4)cc3nc3cc(NC(=O)CCN4CCCC4)ccc23)cc1
- IC50 (second compound 0.0316 µM): > 316 nM
- IC50 (second compound 0.1 µM): 240 nM
- IC50 (second compound 0.316 µM): 94.9 nM
- IC50 (second compound 1 µM): 104 nM
- IC50 (second compound 3.16 µM): 43.7 nM
- IC50 (second compound 10 µM): < 0.999 nM
- viability, T/C [37]: 111%
- viability, T/C [38]: 103%
- viability, T/C [39]: 73.4%
- viability, T/C [1]: 69.2%
- viability, T/C [40]: 65.1%
- viability, T/C [3]: 48.6%
- viability, T/C [41]: 86.2%
- viability, T/C [42]: 91.2%
- viability, T/C [43]: 72.3%
- viability, T/C [7]: 74.5%
- viability, T/C [44]: 72.4%
- viability, T/C [9]: 42.3%
- viability, T/C [45]: 76.4%
- viability, T/C [46]: 77.1%
- viability, T/C [47]: 66.7%
- viability, T/C [13]: 78.8%
- viability, T/C [48]: 48.9%
- viability, T/C [15]: 45.1%
- viability, T/C [49]: 62.2%
- viability, T/C [50]: 81.2%
- viability, T/C [51]: 65.2%
- viability, T/C [19]: 70.9%
- viability, T/C [52]: 50.4%
- viability, T/C [21]: 39.3%
- viability, T/C [53]: 50.2%
- viability, T/C [54]: 57%
- viability, T/C [55]: 56.8%
- viability, T/C [25]: 56.2%
- viability, T/C [56]: 37.1%
- viability, T/C [27]: 22.2%
- viability, T/C [57]: 34.9%
- viability, T/C [58]: 30.8%
- viability, T/C [59]: 29.8%
- viability, T/C [31]: 27.1%
- viability, T/C [60]: 18.6%
- viability, T/C [33]: 13.6%

Structure (SMILES): Cc1cccc(N(C)C(=O)C2C(O)CCN2c2nc(C)cc(C(F)(F)F)c2C#N)c1 (stereo not drawn) + CN(C)c1ccc(Nc2c3ccc(NC(=O)CCN4CCCC4)cc3nc3cc(NC(=O)CCN4CCCC4)ccc23)cc1
- IC50 (second compound 0.0316 µM): > 10000 nM
- IC50 (second compound 0.1 µM): > 10000 nM
- IC50 (second compound 0.316 µM): > 10000 nM
- IC50 (second compound 1 µM): > 10000 nM
- IC50 (second compound 3.16 µM): > 10000 nM
- IC50 (second compound 10 µM): < 31.6 nM
- viability, T/C [1]: 97.7%
- viability, T/C [2]: 92.1%
- viability, T/C [3]: 99.7%
- viability, T/C [4]: 90.6%
- viability, T/C [5]: 96.2%
- viability, T/C [6]: 123%
- viability, T/C [7]: 84.8%
- viability, T/C [8]: 92.9%
- viability, T/C [9]: 81.6%
- viability, T/C [10]: 74.5%
- viability, T/C [11]: 99%
- viability, T/C [12]: 84.8%
- viability, T/C [13]: 86.9%
- viability, T/C [14]: 94%
- viability, T/C [15]: 76.8%
- viability, T/C [16]: 90.3%
- viability, T/C [17]: 81.7%
- viability, T/C [18]: 73.1%
- viability, T/C [19]: 79.3%
- viability, T/C [20]: 95.5%
- viability, T/C [21]: 111%
- viability, T/C [22]: 93%
- viability, T/C [23]: 70.7%
- viability, T/C [24]: 86%
- viability, T/C [25]: 64.3%
- viability, T/C [26]: 65.8%
- viability, T/C [27]: 43.5%
- viability, T/C [28]: 66.4%
- viability, T/C [29]: 59.4%
- viability, T/C [30]: 44.8%
- viability, T/C [31]: 34.9%
- viability, T/C [32]: 56.7%
- viability, T/C [33]: 47.8%
- viability, T/C [34]: 34%
- viability, T/C [35]: 37.4%
- viability, T/C [36]: 20.9%
